Experimental data reported in US20050265999A1, “Modulation of 5-HT2 receptors as a treatment for cardiovascular diseases” (Myogen, Inc., priority 2003, published 2005).

Tested on: HDAC5
Experiment: HDAC localization assay, GFP-HDAC5 in NRVM
Assay type: cell-based, rat
Conditions: NRVM, two hours; 18264 1 μM, PE 20 μM
Description: NRVM culture. For preparations of neonatal rat ventricular myocytes (NRVMs), hearts were removed from 10-20 newborn (1-2 days old) Sprague-Dawley rats. Isolated ventricles were pooled, minced and dispersed by three 20-min incubations at 37° C. in Ads buffer (116 mM NaCl, 20 mM HEPES, 10 mM NaH2PO4, 5.5 mM glucose, 5 mM KCl, 0.8 mM MgSO4, pH 7.4) containing collagenase Type II (65 units/ml, Worthington) and pancreatin (0.6 mg/ml, GibcoBRL). Dispersed cells were applied to a discontinuous gradient of 40.5% and 58.5% (v/v) Percoll (Amersham Biosciences), centrifuged, and myocytes collected from the interface layer. Myocyte preparations were pre-plated in Dulbecco's modified Eagle's medium (DMEM, Cellgro), supplemented with 10% (v/v) fetal bovine serum (FBS, HyClone), 4 mM L-glutamine and 1% penicillin/streptomycin for 1 hour at 37° C. to reduce fibroblast contamination, then plated at a density of 2.5×10^5 cells per well on 6-well tissue culture plates (or 10,000 cells/well on 96-well tissue culture plates) coated with a 0.2% (w/v) gelatin solution. After 24 hours in culture, myocyte preparations were transferred to serum-free maintenance medium (DMEM supplemented with 0.1% (v/v) Nutridoma (Roche), L-glutamine and penicillin/streptomycin). Where indicated, NRVM were treated with test compounds for a period of 48 h. For immunofluorescence applications, NRVM cultures were fixed, incubated with primary antibodies against alpha skeletal actin and atrial natriuretic factor, then incubated with rhodamine- or flurorescein-conjugated secondary antibodies. For HDAC localization assays, NRVM were plated to clear bottomed 96-well plates and infected overnight with recombinant adenovirus encoding HDAC5 fused to green fluorescent protein (multiplicity of infection=50). The next day, medium was replaced with serum-free maintenance medium for 4 hours, and test compounds added. After two hours, NRVM were fixed and imaged by fluorescent microscopy.

## Cc1c(-c2ccccc2)nc2sc3c(c2c1N)CCCC3 [Compound 18264, 3-Methyl-2-phenyl-5,6,7,8-tetrahydro-benzo[4,5]thieno[2,3-b]pyridin-4-ylamine]
  nuclear export of HDAC5-GFP: driven from the nucleus to the cytoplasm
